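Grown in 96-well plates, cells were treated for 48 hours with each compound at five concentrations. Insufficient inhibition: endpoint recorded as highest concentration tested. At the GI50, growth is halved. At the TGI there is no net growth.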

Among the test systems are A549 NSCLC; SK-OV-3 ovarian; UACC-62 melanoma; SF-295 CNS; IGROV1 ovarian; SNB-75 CNS; HCT-15 colon; CAKI-1 renal; OVCAR-4 ovarian; OVCAR-8 ovarian; HS 578T breast.
Common to all, as to assay: inhibition of tumour cell growth, NCI panel, 48 h

Regarding `COc1cc([C@@H]2c3cc4c(c(O)c3C[C@H]3COC(=O)[C@@H]32)OCO4)cc(OC)c1OC`, the GI50 was 0.274 µM with A549 NSCLC; 0.183 µM with SK-OV-3 ovarian; 0.144 µM in the experiment on UACC-62 melanoma; 0.109 µM with SF-295 CNS; 0.0728 µM with IGROV1 ovarian; 0.0203 µM in the experiment on SNB-75 CNS. Besides, the GI50 was 0.19 µM with HCT-15 colon, 0.222 µM in the experiment on CAKI-1 renal and 2.3 µM in the experiment with OVCAR-4 ovarian.
As to `Cc1nc2c(c(=O)[nH]1)S/C(=C(/C#N)c1nc3ccccc3[nH]1)N2c1ccccc1`, the TGI in the experiment on A549 NSCLC, in the experiment with SK-OV-3 ovarian, in the experiment on UACC-62 melanoma, in the experiment with SF-295 CNS, in the experiment on IGROV1 ovarian and in the experiment on SNB-75 CNS was > 100 µM in each case. Moreover, the TGI with HCT-15 colon, with CAKI-1 renal, in the experiment with OVCAR-8 ovarian and with OVCAR-4 ovarian was > 100 µM each time.
For the molecule `COc1ccc2c(c1O)-c1cc(O)cc3c1[C@@H](C2)N(C)CC3`, the TGI in the experiment on A549 NSCLC was found to be 138 µM; in the experiment on SK-OV-3 ovarian, 289 µM; in the experiment on UACC-62 melanoma, 136 µM; in the experiment with SF-295 CNS it was 145 µM; in the experiment with IGROV1 ovarian it was 139 µM; with SNB-75 CNS it was 124 µM. For the same molecule, the TGI with HCT-15 colon was 140 µM; in the experiment on CAKI-1 renal it was 142 µM; in the experiment with OVCAR-8 ovarian, 8.27 µM; in the experiment on OVCAR-4 ovarian, 125 µM.
For `O=C1C(Cl)N(c2cccc(Cl)c2)C1c1c[nH]c2ccccc12` (stereo unspecified), the TGI with A549 NSCLC, in the experiment with SK-OV-3 ovarian, in the experiment with UACC-62 melanoma, with SF-295 CNS, with IGROV1 ovarian and in the experiment on SNB-75 CNS was > 100 µM in each case. Moreover, the TGI in the experiment on OVCAR-8 ovarian and in the experiment with OVCAR-4 ovarian was > 100 µM throughout.
On to `Nc1ccccc1Nc1ccccc1C(=O)[O-].Nc1ccccc1Nc1ccccc1C(=O)[O-].[Zn+2]`, for which the TGI was > 100 µM with A549 NSCLC; > 100 µM with SK-OV-3 ovarian; 68.2 µM with UACC-62 melanoma; > 100 µM in the experiment on SF-295 CNS; > 100 µM in the experiment on IGROV1 ovarian; 49.1 µM in the experiment on SNB-75 CNS. Further, the TGI with HCT-15 colon, in the experiment on CAKI-1 renal and with OVCAR-8 ovarian was > 100 µM each time.
For `Cc1cc(O)c2c(c1O)C(=O)c1cccc(O)c1C2=O`, the TGI in the experiment with A549 NSCLC, in the experiment on SK-OV-3 ovarian, in the experiment with UACC-62 melanoma, in the experiment on SF-295 CNS, with IGROV1 ovarian and in the experiment on SNB-75 CNS was > 100 µM in each case. Further, the TGI with HS 578T breast, in the experiment with HCT-15 colon, with CAKI-1 renal, in the experiment with OVCAR-8 ovarian and in the experiment on OVCAR-4 ovarian was > 100 µM in each case.
As for `C(/C=C/c1ccccc1)=Nc1ccc2c(c1)Cc1ccccc1-2`, the TGI with A549 NSCLC, in the experiment on UACC-62 melanoma, in the experiment with SF-295 CNS, in the experiment on IGROV1 ovarian, with SNB-75 CNS and in the experiment on HS 578T breast was > 100 µM each time. In addition, the TGI in the experiment on HCT-15 colon, in the experiment with CAKI-1 renal, in the experiment on OVCAR-8 ovarian and in the experiment on OVCAR-4 ovarian was > 100 µM in each case.
For the molecule `COc1cc(C2S/C(=C/c3ccccc3)C(=O)N2c2ccc(NC(C)=O)cc2)cc(OC)c1OC` (stereo unspecified), the TGI is > 100 µM in the experiment with A549 NSCLC; > 100 µM in the experiment with SK-OV-3 ovarian; > 100 µM in the experiment on UACC-62 melanoma; > 100 µM with SF-295 CNS; 37.5 µM with SNB-75 CNS; 83.2 µM in the experiment on HS 578T breast. Moreover, the TGI is 46.7 µM with HCT-15 colon, 72.4 µM in the experiment with CAKI-1 renal, 76.9 µM in the experiment on OVCAR-8 ovarian and > 100 µM with OVCAR-4 ovarian.
For `NC(CSCc1ccc(I)cc1)C(=O)O` (stereo unspecified), the TGI with A549 NSCLC, with SK-OV-3 ovarian, with UACC-62 melanoma, with SF-295 CNS, in the experiment with IGROV1 ovarian and with SNB-75 CNS was > 100 µM in each case. Further, the TGI in the experiment with HS 578T breast, in the experiment on HCT-15 colon, in the experiment on CAKI-1 renal, in the experiment with OVCAR-8 ovarian and with OVCAR-4 ovarian was > 100 µM each time.
In the case of `CC[C@@H]1ON(C)[C@H]2CN(C)C(=O)[C@@H]12`, the TGI in the experiment with A549 NSCLC, in the experiment with SK-OV-3 ovarian, in the experiment with SF-295 CNS, with IGROV1 ovarian, in the experiment with HS 578T breast and in the experiment on HCT-15 colon was > 100 µM each time. Also, the TGI with CAKI-1 renal, in the experiment on OVCAR-8 ovarian and in the experiment with OVCAR-4 ovarian was > 100 µM each time.
Turning to `Cc1c(C)c(C)c(CC2(C)CSC2)c(CC2(C)CSC2)c1C`, the TGI in the experiment on A549 NSCLC, with SK-OV-3 ovarian, in the experiment on UACC-62 melanoma, in the experiment on SF-295 CNS, with IGROV1 ovarian and in the experiment with SNB-75 CNS was > 100 µM each time. Moreover, the TGI with HS 578T breast, with HCT-15 colon and in the experiment with OVCAR-8 ovarian was > 100 µM each time.
`COc1ccc(-c2csc(=Nc3ccccc3)n2CCCN(C)C)cc1`: the TGI with A549 NSCLC is 36.3 µM; in the experiment on SK-OV-3 ovarian, 39.4 µM; in the experiment with UACC-62 melanoma, 34.7 µM; with SF-295 CNS, 27.6 µM; in the experiment on SNB-75 CNS, 19.3 µM; in the experiment on HCT-15 colon it was > 100 µM. Besides, the TGI in the experiment on CAKI-1 renal was > 100 µM; with OVCAR-8 ovarian, 75.6 µM; with OVCAR-4 ovarian, 65.6 µM.
On to `NC(=S)N/N=C/c1nccc2ccccc12`, for which the TGI with A549 NSCLC is > 100 µM; in the experiment on SK-OV-3 ovarian it was 8.52 µM; with UACC-62 melanoma, 14.7 µM; with SF-295 CNS it was 2.03 µM; in the experiment on IGROV1 ovarian, > 100 µM; in the experiment with SNB-75 CNS, 13.6 µM. Besides, the TGI was > 100 µM in the experiment on HCT-15 colon, 58.7 µM in the experiment on CAKI-1 renal, > 100 µM with OVCAR-8 ovarian and > 100 µM in the experiment with OVCAR-4 ovarian.
Regarding `CCN1CCCC(C#N)(c2ccccc2)CC1` (stereo unspecified), the TGI with A549 NSCLC, in the experiment on SK-OV-3 ovarian, in the experiment on SF-295 CNS, in the experiment on IGROV1 ovarian, with SNB-75 CNS and in the experiment on HS 578T breast was > 100 µM in each case. Also, the TGI in the experiment on HCT-15 colon, in the experiment with CAKI-1 renal, in the experiment on OVCAR-8 ovarian and in the experiment with OVCAR-4 ovarian was > 100 µM in each case.
On to `CN(C)CCCC1c2ccccc2Oc2ccc(C(F)(F)F)cc21` (stereo unspecified), for which the TGI in the experiment with A549 NSCLC stood at 29.8 µM; in the experiment on SK-OV-3 ovarian, 30.7 µM; with UACC-62 melanoma, 23.4 µM; in the experiment on SF-295 CNS, 31.6 µM; in the experiment on IGROV1 ovarian, 27.6 µM; in the experiment on SNB-75 CNS, 27.7 µM. The TGI with HS 578T breast worked out at 31.8 µM; in the experiment with HCT-15 colon, 31.5 µM; in the experiment with CAKI-1 renal, 25.8 µM; in the experiment on OVCAR-8 ovarian, 31.9 µM; in the experiment on OVCAR-4 ovarian, 28.3 µM.

Values taken from PubChem BioAssay (NCI).
